For one assay, the system named is MS751 cells. The assay is described as follows: MTT cell proliferation assay, MS751 cells. Type of assay: cell-based. The conditions noted are these: MS751 cells (human cervix squamous cell carcinoma, lymph node metastasis); approximately 64-72 hours incubation. The procedure: (§1) The MTT cell proliferation assay was used to study the cytotoxic properties of the compounds. The assay was performed according to the method described by Roche Molecular Biochemicals, with minor modifications. The assay is based on the cleavage of the tetrazolium salt, MTT, in the presence of an electron-coupling reagent. The water-insoluble formazan salt produced must be solubilized in an additional step. Cells grown in a 96-well tissue culture plate were incubated with the MTT solution for approximately 4 hours. After this incubation period, a water-insoluble formazan dye formed. After solubilization, the formazan dye was quantitated using a scanning multi-well spectrophotometer (ELISA reader). […] The cells were seeded at 5,000-10,000 cells in each well of 96-well plate in 100 μL of fresh culture medium and were allowed to attach overnight. The stock solutions of the compounds were diluted in 100 μL cell culture medium to obtain eight concentrations of each test compound, ranging from 1 nM to 30 μM. […] All optical densities were measured at 490 nm using a Vmax Kinetic Microplate Reader (Molecular Devices). In most cases, the assay was performed in duplicate and the results were presented as a mean percent inhibition to the negative control±SE. The following formula was used to calculate the percent of inhibition: Inhibition (%)=(1−(ODo/OD))×100.
(§2) The compounds were tested against MS751, Z138 and 3T3 cells. The MS751 cell line is derived from a metastasis to lymph node of human cervix from a patient diagnosed with squameous cell carcinoma of the cervix. The Z138 cell line is a mature B-cell acute lymphoblastic leukemia cell line derived from a patient with chronic lumphocytic leukemia. 3T3 cells are standard fibroblast cells; they were originally isolated from Swiss mouse embryo tissue.
(Formazan colour is commonly taken as a measure of viable cells.)

A further assay deals with Z138 cells. In words: MTT cell proliferation assay, Z138 cells. Type of assay: cell-based, human. The conditions noted are these: Homo sapiens, Z-138; Z138 cells (mature B-cell acute lymphoblastic leukemia cell line); approximately 64-72 hours incubation. As for the experimental part: as §1, §2
The test system of the next assay is 3T3 cells. In words: MTT cell proliferation assay, 3T3 cells. The class given is cell-based. The conditions noted are these: NIH3T3; 3T3 cells (standard fibroblast cells, Swiss mouse embryo); approximately 64-72 hours incubation. The procedure:
as §1, §2

These results are taken from US10858347B2, “Multicyclic compounds and uses thereof” (Karyopharm Therapeutics Inc., priority 2015, dated 2020).

Structures are written as SMILES. Bounds are passed on as bounds.

Take `Nc1ccc(C2CN(C(=O)NCc3cc4cc(-c5ccc(C(=O)N6CCC(F)(F)CC6)cc5)cc(-c5ccc(F)cc5)c4o3)C2)cn1` [Compound 103, 3-(6-aminopyridin-3-yl)-N-((5-(4-(4,4-difluoropiperidine-1-carbonyl)phenyl)-7-(4-fluorophenyl)benzofuran-2-yl)methyl)azetidine-1-carboxamide]: the IC50 with MS751 cells was 0.1 to 5 µM; in the assay on Z138 cells it was under 0.1 µM; in the assay with 3T3 cells it was 0.1 to 5 µM.
As to `O=C(NCCc1cc2cc(-c3ccc(C(=O)N4CCC(F)(F)CC4)cc3)cc(-c3ccc(F)cc3)c2o1)N1Cc2ccncc2C1` [Compound 107, N-(2-(5-(4-(4,4-difluoropiperidine-1-carbonyl)phenyl)-7-(4-fluorophenyl)benzofuran-2-yl)ethyl)-1H-pyrrolo[3,4-c]pyridine-2(3H)-carboxamide], the values for the IC50 with MS751 cells, in the assay on Z138 cells and with 3T3 cells were under 0.1 µM, under 0.1 µM and 0.1 to 5 µM, respectively.
For `O=C(NCc1cc2cc(-c3ccc(C(=O)N4CCC(F)(F)CC4)cc3)cc(-c3ccc(F)cc3F)c2o1)N1Cc2ccncc2C1` [Compound 108, N-((7-(2,4-difluorophenyl)-5-(4-(4,4-difluoropiperidine-1-carbonyl)phenyl)benzofuran-2-yl)methyl)-1H-pyrrolo[3,4-c]pyridine-2(3H)-carboxamide], the concentration for half-maximal inhibition (IC50) in the assay with MS751 cells was under 0.1 µM; in the assay with Z138 cells, under 0.1 µM; with 3T3 cells, over 10 µM.
As for `N#C/N=C(\NCc1cc2cc(-c3ccc(C(=O)N4CCC(F)(F)CC4)cc3)cc(-c3ccc(F)cc3)c2o1)Nc1ccc(N)nc1` [Compound 118, (E)-1-(6-aminopyridin-3-yl)-2-cyano-3-((5-(4-(4,4-difluoropiperidine-1-carbonyl)phenyl)-7-(4-fluorophenyl)benzofuran-2-yl)methyl)guanidine], the IC50 in the assay with MS751 cells, with Z138 cells and in the assay with 3T3 cells was over 10 µM throughout.
Turning to `N#C/N=C(/NCc1ccc(N)nc1)NCc1cc2cc(-c3ccc(C(=O)N4CCC(F)(F)CC4)cc3)cc(-c3ccc(F)cc3)c2o1` [Compound 119, (Z)-1-((6-aminopyridin-3-yl)methyl)-2-cyano-3-((5-(4-(4,4-difluoropiperidine-1-carbonyl)phenyl)-7-(4-fluorophenyl)benzofuran-2-yl)methyl)guanidine], the IC50 in the assay with MS751 cells is 0.1 to 5 µM; with Z138 cells it was 0.1 to 5 µM; in the assay with 3T3 cells, over 10 µM.
Take `O=C(NCCOc1ccc(-c2ccc(C(=O)N3CCC(F)(F)CC3)cc2)cc1-c1ccc(F)cc1)N1Cc2ccncc2C1` [Compound 121, N-(2-((4-(4,4-difluoropiperidine-1-carbonyl)-4″-fluoro-[1,1′:3′,1″-terphenyl]-4′-yl)oxy)ethyl)-1,3-dihydro-2H-pyrrolo[3,4-c]pyridine-2-carboxamide]: the IC50 was under 0.1 µM with MS751 cells, under 0.1 µM in the assay with Z138 cells and over 10 µM in the assay on 3T3 cells.

Broadly, the IC50 is the concentration needed to halve the response being measured.
